Key:
surinam grass = assay: Test B pre/postemergence surinam grass; type: in vivo, Brachiaria decumbens
In short: (§1)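 Test chemicals in a non-phytotoxic solvent mixture with surfactant were sprayed preemergence onto planted seeds and postemergence onto plants 2 to 18 cm tall (1- to 4-leaf stage). After twelve to sixteen days in a greenhouse, injury was visually rated against untreated controls from 0 (no effect) to 10 (complete control).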

corn = assay: Test B pre/postemergence corn; type: in vivo, Zea mays
In short: as §1

duck salad = assay: Test B flood test duck salad; type: in vivo, Heteranthera limosa
In short: (§2)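 Flood test on plants grown to the 2-leaf stage; treated plants kept in greenhouse twelve to sixteen days, then visually rated against controls on a 0 (no effect) to 10 (complete control) scale.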

blackgrass = assay: Test B pre/postemergence blackgrass; type: in vivo, Alopecurus myosuroides
In short: as §1

sugar beet = assay: Test B pre/postemergence sugar beet; type: in vivo, Beta vulgaris
In short: as §1

rape = assay: Test B pre/postemergence rape; type: in vivo, Brassica napus
In short: as §1

soybean = assay: Test B pre/postemergence soybean; type: in vivo, Glycine max
In short: as §1

wild oat = assay: Test B pre/postemergence wild oat; type: in vivo, Avena fatua
In short: as §1

bedstraw = assay: Test B pre/postemergence bedstraw; type: in vivo, Galium aparine
In short: as §1

purple nutsedge = assay: Test B pre/postemergence purple nutsedge; type: in vivo, Cyperus rotundus
In short: as §1

wheat = assay: Test B pre/postemergence wheat; type: in vivo, Triticum aestivum
In short: as §1

velvetleaf = assay: Test B pre/postemergence velvetleaf; type: in vivo, Abutilon theophrasti
In short: as §1

smallflower flatsedge = assay: Test B flood test smallflower flatsedge; type: in vivo, Cyperus difformis
In short: as §2

crabgrass = assay: Test B pre/postemergence crabgrass; type: in vivo, Digitaria sanguinalis
In short: as §1

pigweed = assay: Test B pre/postemergence pigweed; type: in vivo, Amaranthus retroflexus
In short: as §1

rice = assay: Test B flood test rice; type: in vivo, Oryza sativa
In short: as §2

[1] = Postemergence, Rate 62 g/ha, scale 0 to 10, 0 is no effect, 10 is complete control
[2] = Postemergence, Rate 250 g/ha, scale 0 to 10, 0 no effect, 10 complete control
[3] = Preemergence, Rate 62 g/ha, scale 0 to 10, 0 is no effect, 10 is complete control
[4] = Preemergence, Rate 125 g/ha, scale 0 to 10 (0 no effect, 10 complete control)
[5] = Preemergence, Rate 250 g/ha, scale of 0 to 10 where 0 is no effect and 10 is complete control
[6] = Preemergence, Rate 500 g/ha, scale 0 (no effect) to 10 (complete control)
[7] = Rate 125 g/ha, Postemergence, scale 0 to 10, 0 no effect, 10 complete control
[8] = Rate 500 g/ha, Postemergence, 0 to 10 scale (0 no effect, 10 complete control)
[9] = Rate 125 g/ha, Postemergence section (flood test species), scale 0 to 10, 0 no effect, 10 complete control
[10] = Rate 500 g/ha, Postemergence section of Table B, 0 to 10 scale (0 no effect, 10 complete control)
[11] = flood test, listed under Postemergence, Rate 250 g/ha, scale 0 to 10, 0 no effect, 10 complete control

Structure (SMILES): CCc1ccccc1-n1c(=O)on(C(=O)N(c2ccc(F)cc2F)C(C)C)c1=O [Compound 45]
- B. signalgrass plant response rating (surinam grass; [1]): 0
- B. signalgrass plant response rating (surinam grass; [2]): 0
- Plant response rating, B. signalgrass (surinam grass; [3]): 0
- Plant response rating, B. signalgrass (surinam grass; [4]): 2
- Plant response rating, B. signalgrass (surinam grass; [5]): 4
- B. signalgrass plant response rating (surinam grass; [6]): 9
- B. signalgrass plant response rating (surinam grass; [7]): 0
- B. signalgrass plant response rating (surinam grass; [8]): 2
- Corn plant response rating (corn; [1]): 0
- Corn plant response rating (corn; [2]): 0
- Plant response rating, Corn (corn; [3]): 0
- Plant response rating, Corn (corn; [4]): 0
- Plant response rating, Corn (corn; [5]): 0
- Corn plant response rating (corn; [6]): 1
- Corn plant response rating (corn; [7]): 0
- Corn plant response rating (corn; [8]): 0
- Ducksalad plant response rating (duck salad; [1]): 0
- Ducksalad plant response rating (duck salad; [9]): 0
- Ducksalad plant response rating (duck salad; [10]): 0
- Ducksalad plant response rating (duck salad; [11]): 0
- Blackgrass plant response rating (blackgrass; [1]): 0
- Blackgrass plant response rating (blackgrass; [2]): 4
- Plant response rating, Blackgrass (blackgrass; [3]): 0
- Plant response rating, Blackgrass (blackgrass; [4]): 0
- Plant response rating, Blackgrass (blackgrass; [5]): 0
- Blackgrass plant response rating (blackgrass; [6]): 0
- Blackgrass plant response rating (blackgrass; [7]): 0
- Blackgrass plant response rating (blackgrass; [8]): 4
- Sugarbeets plant response rating (sugar beet; [1]): 0
- Sugarbeets plant response rating (sugar beet; [2]): 1
- Plant response rating, Sugarbeets (sugar beet; [3]): 0
- Plant response rating, Sugarbeets (sugar beet; [4]): 0
- Plant response rating, Sugarbeets (sugar beet; [5]): 7
- Sugarbeets plant response rating (sugar beet; [6]): 8
- Sugarbeets plant response rating (sugar beet; [7]): 0
- Rape plant response rating (rape; [1]): 0
- Rape plant response rating (rape; [2]): 0
- Plant response rating, Rape (rape; [3]): 0
- Plant response rating, Rape (rape; [4]): 0
- Plant response rating, Rape (rape; [5]): 0
- Rape plant response rating (rape; [6]): 0
- Rape plant response rating (rape; [7]): 0
- Rape plant response rating (rape; [8]): 0
- Soybean plant response rating (soybean; [1]): 1
- Soybean plant response rating (soybean; [2]): 1
- Plant response rating, Soybean (soybean; [3]): 0
- Plant response rating, Soybean (soybean; [4]): 0
- Plant response rating, Soybean (soybean; [5]): 0
- Soybean plant response rating (soybean; [6]): 3
- Soybean plant response rating (soybean; [7]): 1
- Wild oats plant response rating (wild oat; [1]): 0
- Wild oats plant response rating (wild oat; [2]): 0
- Plant response rating, Wild oats (wild oat; [4]): 0
- Plant response rating, Wild oats (wild oat; [5]): 0
- Wild oats plant response rating (wild oat; [6]): 0
- Wild oats plant response rating (wild oat; [7]): 0
- Bedstraw plant response rating (bedstraw; [1]): 3
- Plant response rating, Bedstraw (bedstraw; [3]): 0
- Plant response rating, Bedstraw (bedstraw; [4]): 0
- Plant response rating, Bedstraw (bedstraw; [5]): 0
- Bedstraw plant response rating (bedstraw; [6]): 0
- Bedstraw plant response rating (bedstraw; [7]): 5
- Nutsedge plant response rating (purple nutsedge; [1]): 0
- Nutsedge plant response rating (purple nutsedge; [2]): 0
- Plant response rating, Nutsedge (purple nutsedge; [3]): 0
- Plant response rating, Nutsedge (purple nutsedge; [4]): 0
- Plant response rating, Nutsedge (purple nutsedge; [5]): 0
- Nutsedge plant response rating (purple nutsedge; [6]): 0
- Nutsedge plant response rating (purple nutsedge; [7]): 0
- Nutsedge plant response rating (purple nutsedge; [8]): 0
- Wheat plant response rating (wheat; [1]): 0
- Wheat plant response rating (wheat; [2]): 0
- Plant response rating, Wheat (wheat; [3]): 0
- Plant response rating, Wheat (wheat; [4]): 0
- Plant response rating, Wheat (wheat; [5]): 0
- Wheat plant response rating (wheat; [6]): 0
- Wheat plant response rating (wheat; [7]): 0
- Velvetleaf plant response rating (velvetleaf; [1]): 0
- Velvetleaf plant response rating (velvetleaf; [2]): 0
- Plant response rating, Velvetleaf (velvetleaf; [3]): 0
- Plant response rating, Velvetleaf (velvetleaf; [4]): 0
- Plant response rating, Velvetleaf (velvetleaf; [5]): 0
- Velvetleaf plant response rating (velvetleaf; [6]): 3
- Velvetleaf plant response rating (velvetleaf; [7]): 0
- S. Flatsedge plant response rating (smallflower flatsedge; [1]): 0
- S. Flatsedge plant response rating (smallflower flatsedge; [9]): 0
- S. Flatsedge plant response rating (smallflower flatsedge; [11]): 0
- Crabgrass plant response rating (crabgrass; [1]): 0
- Crabgrass plant response rating (crabgrass; [2]): 2
- Plant response rating, Crabgrass (crabgrass; [3]): 0
- Plant response rating, Crabgrass (crabgrass; [4]): 1
- Plant response rating, Crabgrass (crabgrass; [5]): 1
- Crabgrass plant response rating (crabgrass; [6]): 9
- Crabgrass plant response rating (crabgrass; [7]): 0
- Crabgrass plant response rating (crabgrass; [8]): 3
- Redroot pigweed plant response rating (pigweed; [1]): 0
- Redroot pigweed plant response rating (pigweed; [2]): 0
- Plant response rating, Redroot pigweed (pigweed; [3]): 0
- Plant response rating, Redroot pigweed (pigweed; [4]): 0
- Plant response rating, Redroot pigweed (pigweed; [5]): 8
- Redroot pigweed plant response rating (pigweed; [6]): 8
- Redroot pigweed plant response rating (pigweed; [7]): 0
- Redroot pigweed plant response rating (pigweed; [8]): 0
- Rice plant response rating (rice; [1]): 0
- Rice plant response rating (rice; [9]): 0
- Rice plant response rating (rice; [10]): 0
- Rice plant response rating (rice; [11]): 0

Reference: patent US6737383B1, “Herbicidal oxadiazolidines” (priority 1999, dated 2004)
